Source: ChEMBL document CHEMBL4417633, “Inhibitory polypeptides specific to WNT inhibitors” (2017)
The source made the active and inactive calls. No cut-off for these calls is given here. Where a SMILES comes first, the peptide text is derived from it.

How the values were obtained:
[1] = target: T1, Dickkopf WNT-signaling pathway inhibitor 1 (Rattus norvegicus) (UniProt A6I0Z0); test: Inhibition of biotin-labeled rat recombinant DKK1 assessed as reduction in DKK1 interaction with LRP-6/Fc incubated overnight by chemiluminescence based Alpha-screen assay
T1 sequence (whole entry): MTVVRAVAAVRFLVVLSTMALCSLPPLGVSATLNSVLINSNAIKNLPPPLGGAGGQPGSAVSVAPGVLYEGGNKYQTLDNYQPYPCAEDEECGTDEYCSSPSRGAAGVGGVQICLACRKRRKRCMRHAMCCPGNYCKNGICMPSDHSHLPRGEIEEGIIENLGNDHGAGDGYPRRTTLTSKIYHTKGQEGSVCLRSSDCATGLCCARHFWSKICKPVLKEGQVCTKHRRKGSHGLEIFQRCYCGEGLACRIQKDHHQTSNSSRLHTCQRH

[2] = target: T2, Dickkopf-related protein 1 (Homo sapiens, UniProt O94907); test: Inhibition of human DKK1 in MC3T3E1/TetON-Wnt1/STF-Luc#5 cells assessed as DKK1 neutralizing activity by Wnt1-induced TCF/LEF luciferase reporter gene assay
T2 sequence (O94907 whole entry): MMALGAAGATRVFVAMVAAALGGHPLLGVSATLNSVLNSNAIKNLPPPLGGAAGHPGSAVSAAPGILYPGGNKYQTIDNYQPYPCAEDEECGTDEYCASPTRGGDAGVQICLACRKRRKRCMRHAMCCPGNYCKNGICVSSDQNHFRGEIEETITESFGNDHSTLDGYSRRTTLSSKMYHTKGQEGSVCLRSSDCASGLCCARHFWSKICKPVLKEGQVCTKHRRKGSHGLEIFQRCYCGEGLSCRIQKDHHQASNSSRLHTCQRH

[3] = target: T3, Dickkopf-related protein 1 (Homo sapiens) (UniProt O94907); test: Inhibition of biotin-labeled human recombinant DKK1 assessed as reduction in DKK1 interaction with LRP-6/Fc incubated overnight by chemiluminescence based Alpha-screen assay
T3 sequence (whole entry): T2 sequence (O94907 whole entry)

Row | Compound | inhibition [1] | IC50 [2] | inhibition [3]
1 | CC[C@H](C)[C@H](NC(=O)[C@H](CS)NC(=O)[C@H](CC(=O)O)NC(=O)[C@@H]1CCCN1C(=O)[C@H](Cc1ccccc1)NC(=O)CNC(=O)[C@H](CC(=O)O)NC(=O)[C@H](CS)NC(=O)[C@H](CCCNC(=N)N)NC(=O)[C@H](Cc1c[nH]c2ccccc12)NC(=O)[C@H](CCC(=O)O)NC(=O)[C@H](CCSC)NC(=O)[C@@H]1CCCN1C(=O)[C@H](Cc1ccc(O)cc1)NC(=O)[C@H](CS)NC(=O)[C@H](Cc1cnc[nH]1)NC(=O)[C@@H]1CCCN1C(=O)[C@H](CC(C)C)NC(=O)[C@H](CC(N)=O)NC(=O)CNC(=O)[C@H](CS)NC(=O)[C@H](CCC(N)=O)NC(=O)[C@H](Cc1ccccc1)NC(=O)[C@H](Cc1ccc(O)cc1)NC(=O)[C@H](CO)NC(=O)[C@H](C)NC(=O)[C@@H]1CCCN1C(=O)[C@@H](N)CS)C(=O)N[C@@H](CC(=O)O)C(=O)NCC(=O)N[C@@H](CO)C(=O)N[C@@H](CC(=O)O)C(=O)N[C@@H](CCC(=O)O)C(=O)N[C@@H](CCCCN)C(=O)NCC(=O)N[C@@H](CS)C(=O)NCC(=O)NCC(=O)NCC(=O)NCC(=O)O (H-CPASYFQCGNLPHCYPMEWRCDGFPDCIDGSDEKGCGGGG-OH) | Active | 0.8 to 3 nM | Active
2 | CC[C@H](C)[C@H](NC(=O)[C@H](CS)NC(=O)[C@H](CC(=O)O)NC(=O)[C@@H]1CCCN1C(=O)[C@H](Cc1ccccc1)NC(=O)CNC(=O)[C@H](CC(=O)O)NC(=O)[C@H](CS)NC(=O)[C@H](CCCNC(=N)N)NC(=O)[C@H](Cc1c[nH]c2ccccc12)NC(=O)[C@H](CCC(=O)O)NC(=O)[C@H](CCSC)NC(=O)[C@@H]1CCCN1C(=O)[C@H](Cc1ccc(O)cc1)NC(=O)[C@H](CS)NC(=O)[C@H](Cc1cnc[nH]1)NC(=O)[C@@H]1CCCN1C(=O)[C@H](Cc1cnc[nH]1)NC(=O)[C@H](CC(N)=O)NC(=O)[C@H](CCCNC(=N)N)NC(=O)[C@H](CS)NC(=O)[C@@H]1CCCN1C(=O)[C@H](Cc1ccccc1)NC(=O)[C@H](Cc1ccc(O)cc1)NC(=O)[C@@H](NC(=O)[C@H](C)NC(=O)[C@@H]1CCCN1C(=O)[C@@H](N)CS)[C@@H](C)O)C(=O)N[C@@H](CC(=O)O)C(=O)N[C@@H](CCC(=O)O)C(=O)N[C@@H](CO)C(=O)N[C@@H](CC(=O)O)C(=O)N[C@@H](CCC(=O)O)C(=O)N[C@@H](CCSC)C(=O)NCC(=O)N[C@@H](CS)C(=O)NCC(=O)NCC(=O)NCC(=O)NCC(=O)O (H-CPATYFPCRNHPHCYPMEWRCDGFPDCIDESDEMGCGGGG-OH) | Active | 0.8 to 3 nM | Active
3 | CSCC[C@H](NC(=O)[C@@H]1CCCN1C(=O)[C@H](Cc1ccc(O)cc1)NC(=O)[C@H](CS)NC(=O)[C@H](Cc1cnc[nH]1)NC(=O)[C@@H]1CCCN1C(=O)[C@H](Cc1cnc[nH]1)NC(=O)[C@H](CC(N)=O)NC(=O)[C@H](CCCNC(=N)N)NC(=O)[C@H](CS)NC(=O)[C@H](CCCCN)NC(=O)[C@H](Cc1ccccc1)NC(=O)[C@H](Cc1ccc(O)cc1)NC(=O)[C@H](CO)NC(=O)[C@H](C)NC(=O)[C@@H]1CCCN1C(=O)[C@@H](N)CS)C(=O)N[C@@H](CCC(=O)O)C(=O)N[C@@H](Cc1c[nH]c2ccccc12)C(=O)N[C@@H](CCCNC(=N)N)C(=O)N[C@@H](CS)C(=O)N[C@@H](CC(=O)O)C(=O)NCC(=O)N[C@@H](Cc1ccccc1)C(=O)N[C@@H](C)C(=O)N[C@@H](CC(=O)O)C(=O)N[C@@H](CS)C(=O)N[C@H](C(=O)N[C@@H](CC(=O)O)C(=O)NCC(=O)N[C@@H](CO)C(=O)N[C@@H](CC(=O)O)C(=O)N[C@@H](CCC(=O)O)C(=O)N[C@@H](CC(C)C)C(=O)N[C@@H](CO)C(=O)N[C@@H](CS)C(=O)NCC(=O)NCC(=O)NCC(=O)NCC(=O)O)C(C)C (H-CPASYFKCRNHPHCYPMEWRCDGFADCVDGSDELSCGGGG-OH) | Active | 0.8 to 3 nM | Active
